From ChEMBL document CHEMBL6120994, “Unravelling the potential of natural chelating agents in the control of Staphylococcus aureus and Pseudomonas aeruginosa biofilms” (Eur J Med Chem, 2025)
Values after ≈ are worked out from the molar mass of the structure shown. Active and inactive are the calls of the source. No cut-off for these calls is given here.

Columns and labels:
[1] = tested on: Staphylococcus aureus; test: Antibiofilm activity against Staphylococcus aureus CECT 976 assessed as reduction in biomass production at 500 to 1000 ug/ml measured after 24 hrs by crystal violet staining method; type: functional; settings: dose 500-1000 µg/ml, at 500 to 1000 µg/mL
[2] = tested on: Staphylococcus aureus; test: Inhibition of virulence production in pre-established 24 hr-old Staphylococcus aureus CECT 976 biofilms assessed as diameter of siderophores halo at 10XMTC measured after 48 hrs in presence of 1/2XMIC tobramycin (reference value: 11.8 +/-0.5 mm); type: functional
[3] = tested on: Escherichia coli; test: Antibacterial activity against Escherichia coli BNCC133721 assessed as inhibition of bacterial growth measured after 24 hrs by broth microdilution method; type: functional
[4] = tested on: Pseudomonas aeruginosa; test: Antibiotic adjuvant activity against Pseudomonas aeruginosa ATCC 10145 assessed as potentiation of ciprofloxacin-induced antibiofilm activity by measuring reduction in biomass production at 500 ug/ml measured after 24 hrs in presence of 1/16XMIC ciprofloxacin by cystal violet staining method (reference value: 36%); type: functional
[5] = tested on: Pseudomonas aeruginosa; test: Antibiofilm activity against Pseudomonas aeruginosa PAK01 biofilm assessed as reduction of bacterial biomass by crystal violet staining based analysis; type: functional
[6] = tested on: Pseudomonas aeruginosa; test: Antibiotic adjuvant activity against Pseudomonas aeruginosa ATCC 10145 assessed as ciprofloxacin MBC at 125 ug/ml measured after 24 hrs in presence of ciprofloxacin by checkerboard assay (reference value: 32 ug/ml); type: functional; settings: dose 125 µg/ml
[7] = tested on: Staphylococcus aureus; test: Antibiotic adjuvant activity against Staphylococcus aureus CECT 976 assessed as fold potentiation of tobramycin-induced antibiofilm activity by measuring reduction in biomass production at 500 ug/ml measured after 24 hrs in presence of 1/4XMIC tobramycin by crystal violet staining method relative to tobramycin treated control; type: functional; settings: dose 500 µg/ml
[8] = tested on: Staphylococcus aureus; test: Antibiotic adjuvant activity against Staphylococcus aureus CECT 976 assessed as potentiation of tobramycin-induced antibiofilm activity by measuring reduction of CFU of biofilm cells at 500 ug/ml measured after 24 hrs in presence of 1/2X to 1/8XMIC tobramycin by visual counting method; type: functional; settings: dose 500 µg/ml
[9] = tested on: Acinetobacter baumannii; test: Antibacterial activity against Acinetobacter baumannii assessed as inhibition of bacterial growth incubated for 16 hrs by broth microdilution method; type: functional
[10] = tested on: Staphylococcus aureus; test: Antibiotic adjuvant activity against Staphylococcus aureus CECT 976 assessed as potentiation of tobamycin-induced antibacterial activity by measuring tobramycin MBC at 62.5 ug/ml measured after 24 hrs by checkerboard assay (reference value: 4 ug/ml); type: functional; settings: dose 62.5 µg/ml
[11] = tested on: Pseudomonas aeruginosa; test: Antibiofilm activity against Pseudomonas aeruginosa ATCC 10145 assessed as reduction in biomass production at 500 to 1000 ug/ml measured after 24 hrs by crystal violet staining method; type: functional, organism-based; settings: dose 500-1000 µg/ml
[12] = tested on: Staphylococcus aureus; test: Antibiotic adjuvant activity against preestablished 24 hr-old Staphylococcus aureus CECT 976 assessed as potentiation of tobramycin-induced antibiofilm activity by measuring reduction of biomass at 10000 ug/ml measured after 24 hrs in presence of 1/4XMIC to MIC tobramycin by crystal violet staining method; type: functional, organism-based; settings: dose 10000.0 µg/ml
[13] = tested on: Pseudomonas aeruginosa; test: Antibiofilm activity against Pseudomonas aeruginosa PAO1 biofilm assessed as reduction of bacterial biomass by crystal violet staining based analysis; type: functional
[14] = tested on: Pseudomonas aeruginosa; test: Antibiofilm activity against Pseudomonas aeruginosa ATCC 10145 assessed as reduction in metabolic activity of biofilm cells at 500 to 1000 ug/ml by resazurin staining based fluorescence analysis; type: functional, organism-based; settings: dose 500-1000 µg/ml
[15] = tested on: Staphylococcus aureus; test: Antibacterial activity against Staphylococcus aureus ATCC 6538 assessed as inhibition of bacterial growth measured after 24 hrs by broth microdilution method; type: functional
[16] = tested on: Staphylococcus aureus; test: Antibiofilm activity against Staphylococcus aureus CECT 976 assessed as reduction in metabolic activity of biofilm cells at 500 to 1000 ug/ml by resazurin staining based fluorescence analysis; type: functional; settings: dose 500-1000 µg/ml; at 500 to 1000 µg/mL
[17] = tested on: Pseudomonas aeruginosa; test: Antibiofilm activity against Pseudomonas aeruginosa ATCC 10145 assessed as reduction in biofilm cells culturability by measuring reduction in number of CFU at 500 to 1000 ug/ml measured after 24 hrs by visual counting method; type: functional, organism-based; settings: dose 500-1000 µg/ml
[18] = tested on: Pseudomonas aeruginosa; test: Antibiotic adjuvant activity against preestablished 24-hr old Pseudomonas aeruginosa ATCC 10145 assessed as potentiation of ciprofloxacin-induced antibiofilm activity by measuring reduction of biomass at 1000 ug/ml measured after 24 hrs in presence of 1/8XMIC ciprofloxacin by crystal violet staining method; type: functional, organism-based; settings: dose 1000.0 µg/ml
[19] = tested on: Staphylococcus aureus; test: Antibiofilm activity against Staphylococcus aureus ATCC 6538 assessed as reduction in biomass at 700 ug/ml measured after 48 hrs by crystal violet staining based analysis; type: functional
[20] = tested on: HepG2; test: Protection against iron(III)-induced cytotoxicity in human HepG2 cells assessed as cell mass at 250 to 750 ug/ml measured after 24 hrs by SRB binding assay (reference value: 56.2 +/-5.4%); type: functional; settings: dose 250-750 µg/ml, at 250 to 750 µg/mL
[21] = tested on: Staphylococcus aureus; test: Antibiofilm activity against preestablished 24 hr-old Staphylococcus aureus CECT 976 assessed as reduction in biofilm cells culturability by measuring log reduction of CFU of biofilm cells at 10XMTC measured after 24 hrs by visual counting method; type: functional
[22] = tested on: Cell membrane; test: Disruption of membrane integrity in Staphylococcus aureus CECT 976 biofilm at 500 ug/ml measured after 24 hrs in presence of 1/2XMIC tobramycin by SYTO9/PI dye based epifluorescence microscopy; type: subcellular; settings: dose 500.0 µg/ml
[23] = tested on: Staphylococcus aureus; test: Antibiotic adjuvant activity against preestablished 24 hr-old Staphylococcus aureus CECT 976 assessed as potentiation of tobramycin-induced antibiofilm activity by measuring log reduction of CFU of biofilm cells at 10000 ug/ml in presence of 1/4XMIC to MIC tobramycin measured after 24 hrs by visual counting method; type: functional; settings: dose 10000 µg/ml
[24] = tested on: Pseudomonas aeruginosa; test: Antibiofilm activity against Pseudomonas aeruginosa ATCC 10145 assessed as reduction in metabolic activity of biofilm cells at 1000 ug/ml by resazurin staining based fluorescence analysis; type: functional
[25] = tested on: Pseudomonas aeruginosa; test: Antibacterial activity against Pseudomonas aeruginosa assessed as inhibition of bacterial growth incubated for 24 hrs by broth microdilution method; type: functional
[26] = tested on: Pseudomonas aeruginosa; test: Antibiofilm activity against preestablished 24 hr-old Pseudomonas aeruginosa ATCC 10145 assessed as reduction in biofilm cells culturability by measuring log reduction of CFU of biofilm cells at 10XMTC measured after 24 hrs by visual counting method; type: functional
[27] = tested on: Staphylococcus aureus; test: Antibacterial activity against Staphylococcus aureus assessed as loss of intracellular content at 5000 ug/ml incubated for 4 hrs by transmission electron microscopy; type: functional; settings: dose 5000 µg/ml
[28] = tested on: Pseudomonas aeruginosa; test: Antibiotic adjuvant activity against Pseudomonas aeruginosa ATCC 10145 assessed as fractional inhibitory concentration index (MBC) at 15.6 ug/ml measured after 24 hrs in presence of ciprofloxacin by checkerboard assay; type: functional; settings: dose 15.6 µg/ml
[29] = tested on: Staphylococcus aureus; test: Antibacterial activity against Staphylococcus aureus assessed as inhibition of bacterial growth incubated for 24 hrs by broth microdilution method; type: functional
[30] = tested on: Pseudomonas aeruginosa; test: Antibiofilm activity against Pseudomonas aeruginosa ATCC 10145 assessed as reduction in biomass production at 1000 ug/ml measured after 24 hrs by crystal violet staining method; type: functional
[31] = tested on: Staphylococcus aureus; test: Antibiotic adjuvant activity against preestablished 24 hr-old Staphylococcus aureus CECT 976 assessed as potentiation of tobramycin-induced antibiofilm activity by measuring reduction of biomass at 10000 ug/ml measured after 24 hrs in presence of 1/4XMIC tobramycin by crystal violet staining method; type: functional
[32] = Cytotoxicity against human HepG2 cells assessed as cell mass at 375 to 500 ug/ml measured after 24 hrs by SRB binding assay; type: toxicity, cell-based; settings: at 375 to 500 µg/mL, dose 375-500 µg/ml, read-out: Activity

With `O=c1cc(CO)occ1O` [KOJIC ACID] the “inhibition (INH)” value [1] was 26%, the Activity [2] was 10 mm and the Activity [3] was over 1000 µg/mL. For the same compound, the inhibition at 500 µg/mL [4] was 60%, the “inhibition (INH)” value [5] was 5% and the MBC [6] was 32 µg/mL. The “fold change (FC)” value [7] was 2.6, the Activity [8] was 2 log10CFU/cm^-2 and the MIC [9] was 3410 µg/mL (≈ 24 mM). The MBC [10] was 1 µg/mL, the Activity [11] was “inactive” and the Activity [12] was “inactive”. For the same compound, the “inhibition (INH)” value [13] was 27%, the Activity [14] was “inactive” and the MIC [15] was 1400 µg/mL (≈ 9.85 mM). The “inhibition (INH)” value [16] was 40%, the Activity [17] was “inactive” and the Activity [18] was “inactive”. For the same compound, the inhibition at 700 µg/mL [19] was 40%, the Activity [20] was over 61.8% and the Activity [21] was 1.9 log10CFU/cm^-2. The Activity [22] was “inactive”.
With `Cc1occc(=O)c1O` [MALTOL] the Activity [23] was 2 log10CFU/cm^-2, the “inhibition (INH)” value [1] was 26% and the Activity [2] was 10 mm. For the same compound, the inhibition at 500 µg/mL [4] was 60%, the inhibition at 1000 µg/mL [24] was 30% and the MBC [10] was 1 µg/mL. For the same compound, the MIC [25] was 4000 µg/mL (≈ 31.7 mM), the Activity [26] was 3.1 log10CFU/cm^-2 and the Activity [27] was 7.7%. For the same compound, the “fractional inhibitory concentration index (FICI)” value [28] was 1, the “inhibition (INH)” value [16] was 40% and the MIC [29] was 4000 µg/mL (≈ 31.7 mM). The inhibition at 1000 µg/mL [30] was 40%, the inhibition at 10000 µg/mL [31] was 31% and the Activity [18] was “inactive”. For the same compound, the viability at 24 h [32] was 68% and the Activity [22] was “inactive”.
